In data set [1] the test system is Mtb H37Rv strain. As to the kind of experiment: Mtb H37Rv assay, resazurin microtiter-based assay (REMA). The data set is classed as cell-based, Mycobacterium tuberculosis. The following applies: Mycobacterium tuberculosis, REMA plate method, 90% inhibition with respect to growth control. (The colour change of resazurin is a common sign of viable cells or microbes.)

Data set [2] concerns the target Mtb InhA (enoyl acyl carrier protein reductase) (Mycobacterium tuberculosis, UniProt P9WGR1). Description: Mtb InhA enzyme inhibition assay (fluorescence based). The data set is classed as biochemical. As to the method:
Mtb InhA enzyme inhibition assay (Fluorescence based assay)
The compounds were dissolved in 100% dimethyl sulfoxide (DMSO). […] The 50μL enzyme reaction contained PIPES- 30 mM, pH 7.5, NaCl - 50 mM, 0.005% Brij-35, DTT - 2mM, and EDTA- 0.1mM. The enzyme reaction was started by the addition of […] of dodecyl CoA synthesized in-house and the depletion of NADH was followed by measuring the fluorescence of NADH kinetically in the reaction for 30min at excitation at 340nm and emission at 420nm using Tecan Saffire II reader. The concentration at which 50% inhibition in enzyme activity was observed was reported as the IC50.

Where [3] appears, read: read-out: InhA IC50, InhA 1.25 nM, 0.050 mM NADH, NADH fluorescence.

≈ marks a conversion by molar mass, not a printed value. Read-outs that look alike come from different tables or passages of the source. Some results are limits rather than exact numbers.

Sequence of Mtb InhA (enoyl acyl carrier protein reductase) (P9WGR1 whole entry, looked up): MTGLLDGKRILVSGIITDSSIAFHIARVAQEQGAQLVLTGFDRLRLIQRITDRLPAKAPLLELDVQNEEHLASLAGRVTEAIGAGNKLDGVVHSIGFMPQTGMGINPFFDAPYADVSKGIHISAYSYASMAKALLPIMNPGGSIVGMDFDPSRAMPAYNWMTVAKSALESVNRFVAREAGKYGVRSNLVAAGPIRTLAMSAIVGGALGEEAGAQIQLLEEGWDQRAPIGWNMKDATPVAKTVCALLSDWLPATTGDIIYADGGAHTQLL

As a reminder, the MIC is the lowest concentration that inhibits growth of the organism. A high value points to weaker potency. A word on the melting point: it is the temperature, or range, at which the solid turns liquid. As a reminder, the IC50 is the concentration needed to halve the response being measured. For `Nn1c(-c2ccncc2)nn(CC(=O)Nc2cccc(Cl)c2)c1=S` [Compound 6j, 2-(4-Amino-(3-pyridin-4-yl)-5-thioxo-4,5-dihydro-1H[1,2,4]triazol-1-yl)-N-(3-chlorophenyl) acetamide], the melting point lay in the range of 220 to 222 °C. The same compound displayed a minimal inhibitory concentration (MIC) in data set [1] of 6.25 µM (≈ 2.26 µg/mL). The IC50 in data set [2] (setting [3]) was 3.1 µM.

The compound `Nn1c(-c2ccncc2)nn(CC(=O)Nc2ccccn2)c1=S` [Compound 6o, 2-(4-Amino-(3-pyridin-4-yl)-5-thioxo-4,5-dihydro-1H[1,2,4]triazol-1-yl)-N-pyridin-2-yl acetamide] came in with a melting point of 212 to 214 °C. Besides, the MIC in data set [1] worked out at 100 µM (≈ 32.7 µg/mL). Further, the IC50 in data set [2] (setting [3]) amounted to 76 µM.

In turn, `Cc1cccc(NC(=O)Cn2nc(-c3ccncc3)n(N)c2=S)n1` [Compound 6p, 2-(4-Amino-(3-pyridin-4-yl)-5-thioxo-4,5-dihydro-1H[1,2,4]triazol-1-yl)-N-(6-methylpyridin-2-yl) acetamide] registered a melting point of 230 to 232 °C. In addition, the lowest concentration to inhibit growth in data set [1] (MIC) was 100 µM (≈ 34.1 µg/mL). Moreover, the IC50 in data set [2] (setting [3]) amounted to 86 µM.

`Cc1cc(NC(=O)Cn2nc(-c3ccncc3)oc2=S)no1` [Compound 7b, N-(5-methylisoxazol-3-yl)-2-(5-(pyridin-4-yl)-2-thioxo-1,3,4-oxadiazol-3(2H)-yl)acetamide]: the melting point was 232 to 234 °C. Besides, the MIC in data set [1] was 50 µM (≈ 15.9 µg/mL). The compound further displayed an IC50 in data set [2] of 24 µM.

In turn, `Cc1cnc(NC(=O)Cn2nc(-c3ccncc3)oc2=S)s1` [Compound 7d, N-(5-methylthiazol-2-yl)-2-(5-(pyridin-4-yl)-2-thioxo-1,3,4-oxadiazol-3(2H)-yl)acetamide] gave a melting point of 236 to 238 °C. In data set [1], this compound came in with an MIC of 100 µM (≈ 33.3 µg/mL). In data set [2], this compound returned an IC50 of 67 µM.

Regarding `O=C(Cn1nc(-c2ccncc2)oc1=S)Nc1ncc([N+](=O)[O-])s1` [Compound 7e, N-(5-nitrothiazol-2-yl)-2-(5-(pyridin-4-yl)-2-thioxo-1,3,4-oxadiazol-3(2H)-yl)acetamide], the melting point fell in the range of 254 to 256 °C. Besides, the MIC in data set [1] is 100 µM (≈ 36.4 µg/mL). In data set [2], it took 82 µM to reach half-maximal inhibition (IC50).

Compound `CCOc1ccc2nc(NC(=O)Cn3nc(-c4ccncc4)oc3=S)sc2c1` [Compound 7g, N-(6-ethoxybenzo[d]thiazol-2-yl)-2-(5-(pyridin-4-yl)-2-thioxo-1,3,4-oxadiazol-3(2H)-yl)acetamide] came in with a melting point of 252 to 254 °C. This compound had an MIC in data set [1] of over 100 µM. The compound further had an IC50 in data set [2] of over 100 µM.

The record behind these values is PMC7059037, “Development of 1,2,4-Triazole-5-Thione Derivatives as Potential Inhibitors of Enoyl Acyl Carrier Protein Reductase (InhA) in Tuberculosis” (Iranian Journal of Pharmaceutical Research : IJPR, 2019).
